Series [1] has as its system B16F10 cellular tyrosinase. Kind of series: Cellular tyrosinase activity assay in B16F10 cells. The format is cell-based, murine. Particulars: 1, 2, 5 μM; kojic acid 5 μM; α-MSH 1 μM + IBMX 200 μM, 72 h. Here is the method:
To investigate the origins of the anti-melanogenic effects of compounds 3, 8, and 13, their impacts on B16F10 cellular tyrosinase inhibition were evaluated. The experiment utilized a similar experimental method and the same concentrations as those used in the melanin content experiment. Compounds 3, 8, and 13 (1, 2, and 5 μM), kojic acid (5 μM: positive control), and stimulators (1 μM α-MSH and 200 μM IBMX) were used in this experiment. Prior to treatment with the stimulators for 72 h, the test samples (3, 8, 13, and kojic acid) were pre-treated for 1 h.
3.9. Cellular Tyrosinase Activity Assay in B16F10 Cells
The effects of compounds 3, 8, and 13 on B16F10 cellular tyrosinase activity were assessed using a previously reported method. B16F10 cells were seeded, treated with the samples and stimulators, and cultured for 72 h in the same manner as for the cellular melanin content assay. To lyse the cultured cells, a lysis buffer was prepared containing 1 mM phenylmethylsulfonyl fluoride, 50 mM phosphate buffer, and 1% Triton X-100 (5:90:5, v/v/v). The cultivated cells were lysed by adding the prepared lysis buffer (100 µL) after washing twice with PBS. The lysed cells were centrifuged for 30 min at 4 °C and 10,000 g after freezing for 1 h at −80 °C. The supernatants (80 µL) and 10 mM L-dopa (20 µL) were added to each well of a 96-well plate and cultivated for 10 min at 37 °C. The optical density was measured at 475 nm using an ELISA reader. Normalization was performed using a Pierce BCA Protein Assay Kit.

The test system of series [2] is zebrafish larvae. Kind of series: Melanin content in zebrafish larvae. The format is in vivo, zebrafish (Danio rerio). Particulars: compound 8 0.025 mM; kojic acid 20 mM; treated 28 hpf, read 74 hpf. As to the method:
(§1) . Zebrafish embryos obtained by natural mating were dechorionated at 24 hpf and treated with compound 8 (0.025 mM) or kojic acid (20 mM) at 28 hpf. After 46 h, the melanin content and tyrosinase activity were determined.
(§2) 3.13. Measurement of Melanin Content and Tyrosinase Activity in Zebrafish Larvae
(§3) The effects of the 2-phenylbenzo[d]oxazole compound 8 on the melanin content and tyrosinase activity in the zebrafish larvae were assessed using a previously defined procedure with minor modifications. To quantify the melanin content in the zebrafish larvae, zebrafish embryos were obtained through natural mating and operated in a similar manner to the in vivo depigmentation experiment (25 zebrafish embryos per well in a 24-well plate; dechorionation at 24 hpf; test sample treatment (8 [0.025 mM] and kojic acid [20 mM; positive control]) at 28 hpf). Melanin quantification and tyrosinase activity were quantified at 74 hpf. For melanin quantification, the zebrafish larvae were lysed in RIPA buffer (Biosesang, Gyeonggi-do, Korea) and homogenized using a sonicator. […] The absorbance was measured at 405 nm using a microplate reader. For the tyrosinase activity measurement, the supernatants were transferred to new Eppendorf tubes and the protein was quantified using a Pierce BCA protein assay kit, with the absorbance being measured at 570 nm using a microplate reader. […]

For series [3], the system named is tyrosinase activity in zebrafish larvae. Put plainly: Tyrosinase activity in zebrafish larvae. The series is classed as in vivo, zebrafish (Danio rerio). Conditions: compound 8 0.025 mM; kojic acid 20 mM; treated 28 hpf, read 74 hpf. Here is the method: as §1, §2, §3
The subject of series [4] is zebrafish larvae. Kind of series: In vivo depigmentation experiment using zebrafish embryos.
Protocol: Zebrafish embryos were used in this study. […] The zebrafish embryos were obtained through natural mating in our laboratory. The chorion of the zebrafish embryos was removed 24 h post-fertilization (hpf).
In Vivo Depigmentation Experiment Using Zebrafish Embryos
A depigmentation experiment was performed using zebrafish embryos, as previously described [38, 49, 50]. Wild-type zebrafish (Danio rerio) were maintained in a fish tank at 28 °C and fed with dried brine shrimp (Artemia salina, San Francisco Bay Brand, San Francisco, CA, USA) three times daily. The zebrafish embryos were obtained through natural mating in mating cages. The obtained zebrafish embryos were transferred to a 90 mm culture dish containing 200 μL of E3-methylene blue (MB) solution, consisting of 0.001% MB, 0.17 mM KCl, 0.33 mM CaCl2, 0.33 mM MgSO4, and 5 mM NaCl, and incubated in an incubator set at 28 °C. At 24 h post-fertilization (hpf), the zebrafish embryos were dechorionated using pronase (Sigma-Aldrich, St. Louis, MO, USA). […] The 48-well plates were incubated in an incubator set at 28 °C for 48 h. At 76 hpf, the zebrafish larvae were mounted on a 1% methylcellulose block after anesthesia with tricaine methanesulfonate (Thermo Fisher Scientific, Waltham, MA, USA), and photographs of the zebrafish larvae were obtained using a SMZ745T stereoscopic microscope (Nikon, Tokyo, Japan). The pigmented areas of the zebrafish larvae were determined using the CS analyzer 3.0 image analysis software (ATTO, Tokyo, Japan).
Where [5] appears, read: kojic acid 20 mM, compound 8 0.025 mM, compound 13 0.025 and 0.05 mM, 76 hpf.

This note sets out measurements from article PMC11396935, “Exploration of Compounds with 2-Phenylbenzo[d]oxazole Scaffold as Potential Skin-Lightening Agents through Inhibition of Melanin Biosynthesis and Tyrosinase Activity” (Molecules, 2024).

“Also recorded” adds a separate entry of the source.

As for `Cc1ccc2nc(-c3ccc(O)cc3O)oc2c1` [Compound 3, 4-(6-Methylbenzo[d]oxazol-2-yl)benzene-1,3-diol], the “B16F10 cellular tyrosinase activity” value in series [1] was “reduced the stimulator-induced tyrosinase activity in a concentration-dependent manner”.
As for `Oc1ccc(-c2nc3ccc(Cl)cc3o2)c(O)c1` [Compound 8, 4-(6-Chlorobenzo[d]oxazol-2-yl)benzene-1,3-diol], in series [1], the “B16F10 cellular tyrosinase activity” value is “reduced the stimulator-induced tyrosinase activity in a concentration-dependent manner”. Besides, in the series with zebrafish larvae [2], the “melanin content of zebrafish larvae, vs untreated control (100%)” value turned out to be 35%. Further, the “% tyrosinase activity in zebrafish larvae, vs untreated control (100%)” value in series [3] came to 29%. The “toxicity in zebrafish embryos” value in the series with zebrafish larvae [4] (0.05 mM) was “weak toxicity”. In the series on zebrafish larvae [4] (setting [5]), the “depigmentation effect on zebrafish larvae (photographs)” value is “substantially higher depigmentation effects on zebrafish larvae than kojic acid; also recorded: strong potency at 0.025 mM, similar to 13 at 0.05 mM” and the “pigmentation area of zebrafish larvae (CS analyzer)” value was “smallest pigmentation area”.
Consider `Cc1ccc2oc(-c3ccc(O)cc3O)nc2c1` [Compound 13, 4-(5-Methylbenzo[d]oxazol-2-yl)benzene-1,3-diol], for which, in series [1], the “B16F10 cellular tyrosinase activity” value is “reduced the stimulator-induced tyrosinase activity in a concentration-dependent manner”. Also, the “depigmentation effect on zebrafish larvae (photographs)” value in the series on zebrafish larvae [4] (setting [5]) is “substantially higher depigmentation effects on zebrafish larvae than kojic acid; also recorded: significantly stronger depigmentation efficacy than kojic acid”.
